Earlier results in US20100166698A1, “NEW COMPOSITIONS AND METHODS FOR THE TREATMENT OF INFLAMMATION” (University of Virginia Patent Foundation, priority 2005, published 2010).

How the values were obtained:
TNF-a-stimulated PMN = conditions: adenosine 10 μM
[1] = system: TNF-α-stimulated PMN adhering to matrix proteins; conditions: DeLa Harpe, J. Immunol. 143, 596 (1989)

Structure (SMILES): Nc1ncnc2c1ncn2[C@@H]1O[C@H](CO)[C@@H](O)[C@H]1O [adenosine]
- effect on TNF-a-stimulated PMN adherence to matrix proteins (TNF-a-stimulated PMN): failed to see much of an effect
- oxidative burst of TNF-α-stimulated PMN adhering to matrix proteins [1]: dramatically decreases
